According to patent US4831046A, “Tetrazole derivatives of 1,3-dioxane and thromboxane A2 antigonizing use thereof” (Imperial Chemical Industries PLC, priority 1985, dated 1989):

Key:
rabbit aortal strip = rabbit aortal strip model (agonist TXA2 or U46619); type: cell-based; details: test (a), TXA2 antagonism
Experimental: (§1) As stated earlier, the compounds of formula I are antagonists of one or more of the actions of TXA2, for example certain of its actions on blood platelets, the vasculature and/or the lung.
(a) The rabbit aortal strip model devised by Piper and Vane (Nature, 1969, 223, 29-35) using as agonist a freshly prepared sample of TXA2, generated by addition of arachidonic acid (25 μg) to citrated, platelet rich rabbit plasma (250 μl) and allowing the mixture to aggregate fully over 90 seconds before use; alternatively the TXA2 mimetic agent known as U46619 (described by R L Jones et alia, in "Chemistry, Biochemistry and Pharmacological Activity of Prostanoids" edited by S M Roberts and F Scheinmann, at page 211, Pergamon Press, 1979) may be used as the agonist;

[1] = target: T1, human, citrated platelet-rich plasma (Homo sapiens, UniProt P21731); experiment: blood platelet aggregation test (U46619, based on Born); type: cell-based; details: test (b), averaged over several concentrations
T1 construct: aggregating human, citrated platelet-rich plasma by addition of the TXA2 mimetic agent U46619; endogenous in cells; host or cells: human platelets in citrated platelet-rich plasma
T1 sequence (P21731 1-343): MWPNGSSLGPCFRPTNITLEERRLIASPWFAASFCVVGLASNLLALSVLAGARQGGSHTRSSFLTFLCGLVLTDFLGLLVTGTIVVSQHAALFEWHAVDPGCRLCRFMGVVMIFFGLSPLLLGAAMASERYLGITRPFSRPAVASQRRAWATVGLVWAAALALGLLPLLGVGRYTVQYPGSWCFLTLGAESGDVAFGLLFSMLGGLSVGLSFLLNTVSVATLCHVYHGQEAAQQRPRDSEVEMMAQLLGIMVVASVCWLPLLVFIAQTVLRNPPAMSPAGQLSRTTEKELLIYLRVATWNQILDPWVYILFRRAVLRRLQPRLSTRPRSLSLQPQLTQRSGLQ
Text: as §1
(b) a blood platelet aggregation test based on that described by Born (Nature, 1962, 194, 927-929) and involving:
(i) aggregating human, citrated platelet-rich plasma by addition of the TXA2 mimetic agent U46619 so that a dose-response curve is generated;
(ii) generating a dose-response curve for U46619 stimulated platelet aggregation in the presence of increasing amounts of test compound (generally in the range, 10^-5 M to 10^-10 M); and
(iii) calculating a KB value indicating potency of TXA2 antagonism for the test compound averaged over several concentrations, from the calculated 50% response value for U46619 aggregation in the presence and absence of test compound; and […]

[2] = tested on: U46619 induced bronchoconstriction; experiment: bronchoconstriction test, U46619 induced, Konzett-Rossler anaesthetised guinea-pig model; type: in vivo; details: test (c), 50 μg/kg p.o., 50% response
Text: as §1
(c) a bronchoconstriction test involving measuring the inhibition by a test compound of the bronchoconstriction induced in the Konzett-Rossler, anaesthetised guinea-pig model (as modified by Collier and James, Brit. J. Pharmacol., 1967, 30, 283-307) by intravenous administration of the TXA2 mimetic agent, U46619 and involving:
(i) obtaining a cumulative dose-response curve to U46619 induced bronchoconstriction by intravenous administration of constant volumes of increasing concentrations of U46619 (0.2-4 μg/kg) in physiological saline solution and expressing bronchoconstriction as the maximum of that theoretically obtainable with no air flow to the test animal;
(ii) generating a cumulative dose-response curve to U46619 induced bronchoconstriction at 30 minute intervals for 3 hours after oral dosing of test compound; and
(iii) calculating a dose-ratio for the test compound (that is the ratio of concentration of U46619 required to cause 50% bronchoconstriction in the presence and absence of test compound) indicating the potency of TXA2 antagonism.

CC(C)[C@@H]1OC[C@H](C/C=C\CCc2nn[nH]n2)[C@H](c2ccccc2O)O1 (relative stereo) [Example 5, 5-[3(Z)-5-([2,4,5-cis]-4-o-hydroxyphenyl-2-isopropyl-1,3-dioxan-5-yl)pentenyl]-1(H)-tetrazole]
pA2 (rabbit aortal strip): 7.32
Kb [1]: 45.6 nM
dose ratio [2]: 25
